Twelve compounds from US20250154138A1, “Small Molecule IL-17A Modulators” (BeiGene, Ltd., priority 2022, published 2025) can be followed below.

The structures appear in SMILES notation.

Assay [1] relates to IL-17-induced GROα secretion from HT-29 cells. Description: GROα release assay in human colorectal adenocarcinoma epithelial cell (HT-29, ELISA). It counts as cell-based. Conditions: Homo sapiens, HT-29, 48 h, 10 ng/mL IL-17A, highest concentration 10 μM, read-out: Cellular assay HT29 cell/CXCL1 IC50. An outline of the steps:
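IC50 values come from four-parameter fits of GROα levels, quantified by ELISA (450 nm, standard curve) in supernatants. Compounds, 4-fold serially diluted from 10 μM, were mixed 15 min with IL-17A (10 ng/mL final) before 48 h incubation with HT-29 cells at 37°C.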
Background: In an ELISA, binding on a coated surface is turned into a signal by an enzyme label.

Assay [2] deals with human IL-17A / human IL-17RA (Homo sapiens (Human), UniProt Q16552). Description: Human IL-17A biochemical assay (HTRF, blocking of IL-17A binding to IL-17RA). Conditions: 0.4 nM IL-17A, 0.3 nM IL-17RA, max compound concentration 10 uM. An outline of the steps:
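Compounds (10-point, 2.7-fold dilution from 10 uM) preincubated 3 h at RT with 0.4 nM human IL-17A, followed by 1 h with 0.3 nM IL-17RA and 1 h with Tb-cryptate/XL665 antibodies; buffer 20 mM HEPES pH 7.5, 0.1% BSA. Inhibition derived from HTRF fluorescence ratio; IC50 by four-parameter logistic fitting.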
(In TR-FRET formats the signal depends on donor and acceptor labels being close together.)

Sequence of human IL-17A / human IL-17RA (Q16552 24-155): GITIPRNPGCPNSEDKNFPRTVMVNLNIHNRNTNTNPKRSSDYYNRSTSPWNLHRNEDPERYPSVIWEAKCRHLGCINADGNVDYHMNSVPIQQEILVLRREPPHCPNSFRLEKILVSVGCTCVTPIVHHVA

For `Cc1nonc1C(=O)N[C@H](C(=O)Nc1ccc2c(c1)CC(C(O)C(F)(F)F)(N1C[C@@H](C(C)C)NC1=O)C2)C(C1CC1)C1CC1` (stereo partly drawn) [Example 238, N-((2S)-1,1-dicyclopropyl-3-((2-((R)-4-isopropyl-2-oxoimidazolidin-1-yl)-2-(2,2,2-trifluoro-1-hydroxyethyl)-2,3-dihydro-1H-inden-5-yl)amino)-3-oxopropan-2-yl)-4-methyl-1,2,5-oxadiazole-3-carboxamide], the values for the IC50 in assay [1] and in assay [2] were 137 nM and 222 nM, respectively.

Take `Cc1nonc1C(=O)N[C@H](C(=O)Nc1ccc2c(c1)CC(c1c[nH]c(C3CC3)n1)(N1C[C@@H](C(C)C)NC1=O)C2)C(C1CC1)C1CC1` (stereo partly drawn) [Example 252, N-((2S)-1,1-dicyclopropyl-3-((2-(2-cyclopropyl-1H-imidazol-4-yl)-2-((R)-4-isopropyl-2-oxoimidazolidin-1-yl)-2,3-dihydro-1H-inden-5-yl)amino)-3-oxopropan-2-yl)-4-methyl-1,2,5-oxadiazole-3-carboxamide]: the IC50 was determined as 1160 nM in assay [1] and 829 nM in assay [2].

Consider `CC(C)n1nccc1C(=O)N[C@H](C(=O)Nc1ccc2c(c1)CC(c1nc3cccc(C(F)(F)F)c3[nH]1)(N1CC3(CC3)CNC1=O)C2)C(C1CC1)C1CC1` (stereo partly drawn) [Example 198, N-((2S)-1,1-dicyclopropyl-3-oxo-3-((2-(6-oxo-5,7-diazaspiro[2.5]octan-5-yl)-2-(7-(trifluoromethyl)-1H-benzo[d]imidazol-2-yl)-2,3-dihydro-1H-inden-5-yl)amino)propan-2-yl)-1-isopropyl-1H-pyrazole-5-carboxamide], for which the IC50 is 316 nM in assay [1] and 1130 nM in assay [2].

On to `CNC(=O)C1(N2C[C@@H](C(C)C)NC2=O)Cc2ccc(NC(=O)[C@H](Cc3cc(-c4ccnc(C(C)(C)O)c4)ccc3Cl)NC(=O)c3ccnn3C)cc2C1` (stereo partly drawn) [Example 79, N-((2S)-3-(2-chloro-5-(2-(2-hydroxypropan-2-yl)pyridin-4-yl)phenyl)-1-((2-((R)-4-isopropyl-2-oxoimidazolidin-1-yl)-2-(methylcarbamoyl)-2,3-dihydro-1H-inden-5-yl)amino)-1-oxopropan-2-yl)-1-methyl-1H-pyrazole-5-carboxamide], for which the IC50 in assay [1] was 1300 nM; in assay [2] it was 79 nM.

Regarding `CCC1CCC(C(NC(=O)c2ccnn2C)C(=O)Nc2ccc3c(c2)CC(C(=O)NC)(N2CC4(CCC4)CNC2=O)C3)CC1` (stereo not drawn) [Example 125, N-(1-(4-ethylcyclohexyl)-2-((2-(methylcarbamoyl)-2-(7-oxo-6,8-diazaspiro[3.5]nonan-6-yl)-2,3-dihydro-1H-inden-5-yl)amino)-2-oxoethyl)-1-methyl-1H-pyrazole-5-carboxamide], the IC50 in assay [1] turned out to be 25.8 nM; in assay [2], 5.6 nM.

Take `CC(C)n1nccc1C(=O)N[C@H](C(=O)Nc1ccc2c(c1)CC(N1C[C@@H](C(F)(F)F)NC1=O)C2)C1CCCCC1` (stereo partly drawn) [Example 195, N-((1S)-1-cyclohexyl-2-oxo-2-((2-((S)-2-oxo-4-(trifluoromethyl)imidazolidin-1-yl)-2,3-dihydro-1H-inden-5-yl)amino)ethyl)-1-isopropyl-1H-pyrazole-5-carboxamide]: the IC50 in assay [1] was 383 nM; in assay [2], 128 nM.

With `CNC(=O)C1(N2CCNC2=O)Cc2ccc(NC(=O)[C@@H](NC(=O)c3ccnn3C)C3CCCCC3)cc2C1` (stereo partly drawn) [Example 13, N-((1S)-1-cyclohexyl-2-((2-(methylcarbamoyl)-2-(2-oxoimidazolidin-1-yl)-2,3-dihydro-1H-inden-5-yl)amino)-2-oxoethyl)-1-methyl-1H-pyrazole-5-carboxamide], the IC50 was determined as 1500 nM in assay [1] and 1800 nM in assay [2].

In the case of `CCC1CCC(C(NC(=O)c2ccnn2C)C(=O)Nc2ccc3c(c2)CC(C(=O)NC)(N2CC4(CC4)CNC2=O)C3)CC1` (stereo not drawn) [Example 139, N-(1-(4-ethylcyclohexyl)-2-((2-(methylcarbamoyl)-2-(6-oxo-5,7-diazaspiro[2.5]octan-5-yl)-2,3-dihydro-1H-inden-5-yl)amino)-2-oxoethyl)-1-methyl-1H-pyrazole-5-carboxamide], the IC50 in assay [1] is 21.9 nM; in assay [2], 10 nM.

Consider `CC[C@@H]1CN(C2(C(=O)NC)Cc3ccc(NC(=O)[C@@H](NC(=O)c4ccnn4C)C(C4CC4)C4CC4)cc3C2)C(=O)N1` (stereo partly drawn) [Example 166, N-((2S)-1,1-dicyclopropyl-3-((2-((R)-4-ethyl-2-oxoimidazolidin-1-yl)-2-(methylcarbamoyl)-2,3-dihydro-1H-inden-5-yl)amino)-3-oxopropan-2-yl)-1-methyl-1H-pyrazole-5-carboxamide], for which the values for the IC50 in assay [1] and in assay [2] were 135 nM and 169 nM, respectively.

With `Cn1nccc1C(=O)N[C@H](C(=O)Nc1ccc2c(c1)OC(CN1C[C@@H](C(F)(F)F)NC1=O)C2)C1CCCCC1` (stereo partly drawn) [Example 237, N-((1S)-1-cyclohexyl-2-oxo-2-((2-(((S)-2-oxo-4-(trifluoromethyl)imidazolidin-1-yl)methyl)-2,3-dihydrobenzofuran-6-yl)amino)ethyl)-1-methyl-1H-pyrazole-5-carboxamide], the IC50 in assay [1] was found to be 53.3 nM; in assay [2] it was 27.1 nM.

With `Cc1nonc1C(=O)N[C@H](C(=O)Nc1ccc2c(c1)CC(C#N)(N1CC3(CC3)CNC1=O)C2)C(C1CC1)C1CC1` (stereo partly drawn) [Example 226, N-((2S)-1-((2-cyano-2-(6-oxo-5,7-diazaspiro[2.5]octan-5-yl)-2,3-dihydro-1H-inden-5-yl)amino)-3,3-dicyclopropyl-1-oxopropan-2-yl)-4-methyl-1,2,5-oxadiazole-3-carboxamide], the IC50 in assay [1] stood at 225 nM; in assay [2], 50.4 nM.

For the compound `CC(C)[C@@H]1CN(C2(C(=O)Nc3ccccc3)Cc3ccc(NC(=O)[C@@H](NC(=O)c4ccnn4C)C4CCCCC4)cc3C2)C(=O)N1` (stereo partly drawn) [Example 151, N-((1S)-1-cyclohexyl-2-((2-((R)-4-isopropyl-2-oxoimidazolidin-1-yl)-2-(phenylcarbamoyl)-2,3-dihydro-1H-inden-5-yl)amino)-2-oxoethyl)-1-methyl-1H-pyrazole-5-carboxamide], the figures for the IC50 in assay [1] and in assay [2] were 99.6 nM and 31 nM, respectively.
